Measured values reported in ChEMBL document CHEMBL6103624, “Design, Synthesis, and Biological Evaluation of Marchantin C-NO Donor Hybrids for Overcoming Pgp-Mediated Drug Resistance by Targeting Lysosome” (J Med Chem, 2025).
pIC50: −log10 of the molar value. Active and inactive are the calls of the source. No cut-off for these calls is given here.

What was measured:
[1] = tested on: A549; assay: Antiproliferative activity against human A549 cells assessed as inhibition of cell growth incubated for 48 hrs by MTT assay; assay type: functional, cell-based; settings: A549, 48 h
[2] = tested on: NCI/ADR-RES; assay: Induction of NO release in human MCF7ADR cells at 100 uM measured for 5 hrs by Griess reagent assay; assay type: functional, cell-based
[3] = tested on: NCI/ADR-RES; assay: Antiproliferative activity against human MCF7ADR cells assessed as inhibition of cell growth incubated for 48 hrs by MTT assay; assay type: functional, cell-based
[4] = tested on: MCF7; assay: Antiproliferative activity against human MCF7 cells assessed as inhibition of cell growth incubated for 48 hrs by MTT assay; assay type: functional, cell-based; settings: MCF7, 48 h
[5] = tested on: NCI/ADR-RES; assay: Induction of NO release in human MCF7ADR cells at 100 uM by Griess reagent assay; assay type: functional, cell-based; settings: time <= 10.0 hrs
[6] = tested on: HepG2; assay: Antiproliferative activity against human HepG2 cells assessed as inhibition of cell growth incubated for 48 hrs by MTT assay; assay type: functional, cell-based; settings: HepG2, 48 h
[7] = tested on: PC-3; assay: Antiproliferative activity against human PC-3 cells assessed as inhibition of cell growth incubated for 48 hrs by MTT assay; assay type: functional, cell-based; settings: PC-3, 48 h
[8] = tested on: MCF7; assay: Induction of NO release in human MCF7 cells at 100 uM measured for 5 hrs by Griess reagent assay; assay type: functional, cell-based
[9] = Selectivity index, ratio of IC50 for antiproliferative activity against human A549 cells assessed as inhibition of cell growth to IC50 for antiproliferative activity against human A549/Taxol cells assessed as inhibition of cell growth; assay type: functional
[10] = Selectivity index, ratio of IC50 for antiproliferative activity against human MCF7 cells assessed as inhibition of cell growth to IC50 for antiproliferative activity against human MCF7ADR cells assessed as inhibition of cell growth; assay type: functional
[11] = tested on: A549/TR; assay: Antiproliferative activity against human A549/Taxol cells assessed as inhibition of cell growth incubated for 48 hrs by MTT assay; assay type: functional, cell-based
[12] = Selectivity index, ratio of IC50 for human MCF-10A to IC50 for human MDA-MB-231 cells; assay type: toxicity; settings: MCF-10A cells and MDA-MB-231 cells, read-out: Ratio IC50
[13] = Cytotoxicity against human MCF-10A cells assessed as inhibition of cell growth incubated for 48 hrs by MTT assay; assay type: toxicity, cell-based
[14] = Cytotoxicity against human BEAS-2B cells assessed as inhibition of cell growth incubated for 48 hrs by MTT assay; assay type: toxicity, cell-based

Row | SMILES | pIC50 [1] | pIC50 [4] | pIC50 [6] | pIC50 [7] | pIC50 [11] | Activity [2] | pIC50 [3] | Activity [5] | Activity [8] | Ratio IC50 [9] | Ratio IC50 [10] | selectivity ratio [12] | IC50 at 48 h [13] [µM] | IC50 at 48 h [14] [µM]
1 | O=[N+]([O-])OCC(COc1cccc2c1Oc1cccc(c1)CCc1ccc(O)c(c1)Oc1ccc(cc1)CC2)O[N+](=O)[O-] (stereo not given) | < 4.40 | < 4.70 | < 4.70 | 4.93 | – | inactive | < 4.70 | Time-dependent-effect | inactive | – | – | – | – | –
2 | O=C(CCCOc1no[n+]([O-])c1S(=O)(=O)c1ccccc1)Oc1ccc2cc1Oc1ccc(cc1)CCc1cccc(OC(=O)CCCOc3no[n+]([O-])c3S(=O)(=O)c3ccccc3)c1Oc1cccc(c1)CC2 | 4.40 | 4.82 | < 4.70 | < 4.70 | 4.82 | – | 6.17 | – | – | 3 | 22 | – | – | –
3 | O=C(CCCCCOc1no[n+]([O-])c1S(=O)(=O)c1ccccc1)Oc1cccc2c1Oc1cccc(c1)CCc1ccc(O)c(c1)Oc1ccc(cc1)CC2 | < 4.40 | – | < 4.70 | < 4.70 | – | – | – | – | – | – | – | – | – | –
4 | CCO/N=[N+](\[O-])N1CCN(Cc2ccc3c(c2O)Oc2cccc(c2)CCc2ccc(O)c(c2)Oc2ccc(cc2)CC3)CC1 | < 4.40 | – | < 4.70 | < 4.70 | – | – | – | – | – | – | – | – | – | –
5 | O=C(/C=C\COc1no[n+]([O-])c1S(=O)(=O)c1ccccc1)Oc1cccc2c1Oc1cccc(c1)CCc1ccc(O)c(c1)Oc1ccc(cc1)CC2 | < 4.40 | 4.86 | 5.19 | < 4.70 | < 4.70 | – | < 5.52 | – | – | – | <5 | – | – | –
6 | O=C(/N=c1/c[n+](-c2ccccc2)[n-]o1)Oc1ccc2cc1Oc1ccc(cc1)CCc1cccc(OC(=O)/N=c3/c[n+](-c4ccccc4)[n-]o3)c1Oc1cccc(c1)CC2 | < 4.40 | – | < 4.70 | < 4.70 | – | – | – | – | – | – | – | – | – | –
7 | CCN(CC)c1ccc2cc(C(=O)OCCCCCOc3cc4ccc(=O)oc4cc3OCCCCCCOc3no[n+]([O-])c3S(=O)(=O)c3ccccc3)c(=O)oc2c1 | – | – | – | – | – | – | – | – | – | – | – | > 6250 | – | –
8 | O=C(/N=c1\c[n+](-c2ccccc2)[n-]o1)Oc1cccc2c1Oc1cccc(c1)CCc1ccc(O)c(c1)Oc1ccc(cc1)CC2 | < 4.40 | < 4.70 | < 4.70 | < 4.70 | – | inactive | < 4.70 | Time-dependent-effect | inactive | – | – | – | – | –
9 | O=S(=O)(c1ccccc1)c1c(OCCOc2cccc3c2Oc2cccc(c2)CCc2ccc(O)c(c2)Oc2ccc(cc2)CC3)no[n+]1[O-] | 4.72 | 5.04 | 5.77 | 5.53 | 5.47 | – | 6.05 | – | – | 6 | 10 | – | – | 13.7
10 | CC(=O)CCCCn1c(=O)c2c(ncn2C)n(C)c1=O [PENTOXIFYLLINE] | 4.96 | – | – | – | < 4.70 | – | – | – | – | <0.5 | – | – | – | –
11 | O=[N+]([O-])OCC(COc1ccc2cc1Oc1ccc(cc1)CCc1cccc(OCC(CO[N+](=O)[O-])O[N+](=O)[O-])c1Oc1cccc(c1)CC2)O[N+](=O)[O-] (stereo not given) | < 4.40 | < 4.70 | < 4.70 | < 4.70 | – | – | < 4.70 | – | – | – | – | – | – | –
12 | O=C(/C=C\COc1no[n+]([O-])c1S(=O)(=O)c1ccccc1)Oc1ccc2cc1Oc1ccc(cc1)CCc1cccc(OC(=O)/C=C\COc3no[n+]([O-])c3S(=O)(=O)c3ccccc3)c1Oc1cccc(c1)CC2 | < 4.40 | – | < 4.70 | < 4.70 | – | – | – | – | – | – | – | – | – | –
13 | O=S(=O)(c1ccccc1)c1c(OC/C=C\COc2ccc3cc2Oc2ccc(cc2)CCc2cccc(OC/C=C\COc4no[n+]([O-])c4S(=O)(=O)c4ccccc4)c2Oc2cccc(c2)CC3)no[n+]1[O-] | – | < 4.70 | – | – | – | – | < 5.52 | – | – | – | <7 | – | – | –
14 | O=S(=O)(c1ccccc1)c1c(OCCCCCCOc2ccc3cc2Oc2ccc(cc2)CCc2cccc(OCCCCCCOc4no[n+]([O-])c4S(=O)(=O)c4ccccc4)c2Oc2cccc(c2)CC3)no[n+]1[O-] | < 4.40 | 4.56 | < 4.70 | < 4.70 | < 4.70 | – | < 5.52 | – | – | – | <9 | – | – | –
15 | O=S(=O)(c1ccccc1)c1c(OCCCOc2ccc3cc2Oc2ccc(cc2)CCc2cccc(O)c2Oc2cccc(c2)CC3)no[n+]1[O-] | 4.47 | 5.07 | – | 5.92 | 5.32 | – | 6.62 | – | – | 7 | 35 | – | – | < 2.5

Second part, led by results:

Row | pIC50 [1] | pIC50 [4] | pIC50 [6] | pIC50 [7] | pIC50 [11] | SMILES | Activity [2] | pIC50 [3] | Activity [5] | Activity [8] | Ratio IC50 [9] | Ratio IC50 [10] | selectivity ratio [12] | IC50 at 48 h [13] [µM] | IC50 at 48 h [14] [µM]
16 | < 4.40 | < 4.70 | – | – | < 4.70 | O=S(=O)(c1ccccc1)c1c(OC/C=C\COc2cccc3c2Oc2cccc(c2)CCc2ccc(O)c(c2)Oc2ccc(cc2)CC3)no[n+]1[O-] | – | < 5.52 | – | – | – | <7 | – | – | –
17 | < 4.40 | < 4.70 | < 4.70 | < 4.70 | < 4.70 | O=S(=O)(c1ccccc1)c1c(OCCCCOc2ccc3cc2Oc2ccc(cc2)CCc2cccc(OCCCCOc4no[n+]([O-])c4S(=O)(=O)c4ccccc4)c2Oc2cccc(c2)CC3)no[n+]1[O-] | – | < 5.52 | – | – | – | <7 | – | – | –
18 | < 4.40 | < 4.70 | < 4.70 | < 4.70 | 5.23 | O=S(=O)(c1ccccc1)c1c(OCCCCOc2cccc3c2Oc2cccc(c2)CCc2ccc(O)c(c2)Oc2ccc(cc2)CC3)no[n+]1[O-] | – | 7.01 | – | – | >7 | >204 | – | 8.32 | > 20
19 | 4.42 | 4.68 | < 4.70 | < 4.70 | 4.99 | O=S(=O)(c1ccccc1)c1c(OCCCOc2ccc3cc2Oc2ccc(cc2)CCc2cccc(OCCCOc4no[n+]([O-])c4S(=O)(=O)c4ccccc4)c2Oc2cccc(c2)CC3)no[n+]1[O-] | – | 6.00 | – | – | 4 | 21 | – | – | –
20 | – | > 7.60 | – | – | – | COc1cccc2c1C(=O)c1c(O)c3c(c(O)c1C2=O)C[C@@](O)(C(=O)CO)C[C@@H]3O[C@H]1C[C@H](N)[C@H](O)[C@H](C)O1 [DOXORUBICIN] | – | 4.49 | – | – | – | <0.001 | – | < 2.5 | < 2.5
21 | < 4.40 | < 4.70 | < 4.70 | < 4.70 | – | O=[N+]([O-])c1ccc(O/N=[N+](\[O-])N2CCN(Cc3ccc4c(c3O)Oc3cccc(c3)CCc3ccc(O)c(c3)Oc3ccc(cc3)CC4)CC2)c([N+](=O)[O-])c1 | – | < 5.52 | Time-dependent-effect | – | – | <7 | – | – | –
22 | < 4.40 | 4.82 | < 4.70 | 5.36 | 4.92 | O=S(=O)(c1ccccc1)c1c(OCCOCCOc2cccc3c2Oc2cccc(c2)CCc2ccc(O)c(c2)Oc2ccc(cc2)CC3)no[n+]1[O-] | – | 6.00 | – | – | >3 | 15 | – | < 2.5 | 5.14
23 | 4.82 | 4.96 | – | 5.57 | 5.27 | O=S(=O)(c1ccccc1)c1c(OCCOc2ccc3cc2Oc2ccc(cc2)CCc2cccc(O)c2Oc2cccc(c2)CC3)no[n+]1[O-] | – | 6.70 | – | – | 3 | 55 | – | – | –
24 | < 4.40 | – | < 4.70 | < 4.70 | – | CO/N=[N+](\[O-])N1CCN(Cc2ccc3c(c2O)Oc2cccc(c2)CCc2ccc(O)c(c2)Oc2ccc(cc2)CC3)CC1 | – | – | – | – | – | – | – | – | –
25 | < 4.40 | – | < 4.70 | < 4.70 | – | O=C(CCCOc1no[n+]([O-])c1S(=O)(=O)c1ccccc1)Oc1cccc2c1Oc1cccc(c1)CCc1ccc(O)c(c1)Oc1ccc(cc1)CC2 | – | – | – | – | – | – | – | – | –
26 | < 4.40 | < 4.70 | < 4.70 | < 4.70 | 5.18 | O=S(=O)(c1ccccc1)c1c(OCCCCCCOc2cccc3c2Oc2cccc(c2)CCc2ccc(O)c(c2)Oc2ccc(cc2)CC3)no[n+]1[O-] | – | 6.43 | – | – | >6 | >54 | – | > 20 | > 20
27 | 4.39 | 4.60 | < 4.70 | < 4.70 | 4.94 | O=S(=O)(c1ccccc1)c1c(OCCOc2ccc3cc2Oc2ccc(cc2)CCc2cccc(OCCOc4no[n+]([O-])c4S(=O)(=O)c4ccccc4)c2Oc2cccc(c2)CC3)no[n+]1[O-] | – | 5.49 | – | – | 4 | 8 | – | – | –
28 | < 4.40 | < 4.70 | < 4.70 | < 4.70 | – | O=S(=O)(c1ccccc1)c1c(Oc2ccc(COc3cccc4c3Oc3cccc(c3)CCc3ccc(O)c(c3)Oc3ccc(cc3)CC4)cc2)no[n+]1[O-] | – | < 5.52 | – | – | – | <7 | – | – | –
29 | < 4.40 | < 4.70 | < 4.70 | < 4.70 | < 4.70 | O=C(CCCCCOc1no[n+]([O-])c1S(=O)(=O)c1ccccc1)Oc1ccc2cc1Oc1ccc(cc1)CCc1cccc(OC(=O)CCCCCOc3no[n+]([O-])c3S(=O)(=O)c3ccccc3)c1Oc1cccc(c1)CC2 | – | < 5.52 | – | – | – | <7 | – | – | –
